Results published in patent US9433572B2, “Pomegranate based skin protectant and topical application” (POM Wonderful, LLC, priority 2008, dated 2016).

Tested on: lipid peroxyl radicals
Experiment: In vivo bleaching of beta-carotene applied to the skin under UVA (lipid peroxyl radical scavenging)
Conditions: human forearm skin, 2 mg/cm^2, UVA
Experimental: The protective effect of pomegranate-derived skin cream from the Example 4 was determined by assessing lipid peroxyl free radical scavenging capacity on the skin. Free radicals have been implicated in many of undesirable aspects of skin aging whether due to intrinsic cause or to exposure to UV radiation. Carotenoids like beta-carotene are efficient antioxidants scavenging singlet molecular oxygen and peroxyl radicals generated in during photooxidation. The bleaching of carotenoids has been used to evaluate the auto-oxidation activity of natural products. This technique can be used to evaluate, in vivo in non-invasive way, the ability of skin cream products to scavenge lipid peroxyl radicals. Basically, the method includes measuring the bleaching of beta-carotene applied to the skin when irradiated by UVA. […] An individual skin type is determined by an Individual Topology Angle (ITA), which can be found by using the following formula: […]*)×180/3.1415. Dr. Scholl's® Round Adhesive callus pad (Schering-Plough, Kenilworth, N.J.) were placed on the volar surface of the designated forearm (pre-cleaned with alcohol) of subjects. […] A baseline chromameter reading is taken after all of the callus pads have been applied. 2 mg/cm^2 of test skin cream and the positive control are applied in duplicate to each of the 2 sites. This is accomplished by means of a pre-calibrated syringe or by weighing the appropriate test material amount in a weigh boat. The test product and positive control are allowed to set on the forearm at ambient temperature for 15 minutes. The chromameter is used to measure the b* parameter of the coloration of the treated skin. Measurements are taken on the treated and untreated sites. The beta-carotene solution is then applied by means of a finger cot to obtain a uniform, homgeous orange color on all sites (pre-treated and non-treated), excluding the two control sites. The chromameter is used to measure the b* component of each site, post-application of the beta-carotene. […] The total exposure to UVA radiation is 6.0 J/cm^2. […]

CC1=C(/C=C/C(C)=C/C=C/C(C)=C/C=C/C=C(C)/C=C/C=C(C)/C=C/C2=C(C)CCCC2(C)C)C(C)(C)CCC1 [®-carotene, beta-carotene]
Mean of Color Index (at 10 minutes): 42%
Mean of Color Index (at 30 minutes): 16%
Mean of Color Index (at 60 minutes): 0%
